# Measured values: patent US20190328691A1, “ANTIBIOTIC THERAPY” (Boulos & Cooper Pharmaceuticals Pty Ltd, priority 2015, published 2019)
# Where “and” joins values, the source holds several entries; their conditions need not be identical. Identical values can stand only once. Like-named read-outs stand apart in the source and are kept apart here.
# How the values were obtained:
# [1] = system: Staphylococcus aureus (BAA-1717); experiment: Checkerboard combination / MIC assay with S. aureus BAA-1717 (MRSA); format: cell-based; conditions: for MIC: Staphylococcus aureus, ATCC BAA-1717 / BAA-1717, read-out: MIC of antibiotic alone
# Protocol: (§1) Colonies were suspended in PBS. The absorbance of each suspension was measured with a spectrophotometer, and then the suspension was adjusted to 1×10^6 CFU/mL. The testing inoculum was prepared within 20 minutes before adding to wells of the test plate. Final cellular density in the checkerboard assays was 5×10^5 CFU/mL.
# (§2) The combination effect of antibacterial substances administered together was evaluated by an in vitro checkerboard combination method with Staphylococcus aureus (ATCC 29213) and Staphylococcus aureus (BAA-1717). Ramizol and Chlopam were tested alone in 11 points by two-fold serial titration and in combination with different commercial antibiotics which were tested in a 7-point titration alone and in combination with Ramizol and Chlopam using the checkerboard technique as recommended by the Clinical & Laboratory Standards Institute (CLSI. Methods for Dilution In Antimicrobial Susceptibility Tests for Bacteria That Grow Aerobically; Approved Standard-Eighth Edition. CLSI document M07-A8 (ISBN 1-56238-689-1). Vol. 29 No. 2. Clinical and Laboratory Standards Institute, USA, 2009). The commercial antibiotics were also tested alone. Twenty-four checkerboard tests were performed.
# (§3) The starting concentration of Ramizol, Chlopam, and the commercial antibiotics was four fold of the MIC. The testing range for each combination was described in the following summary tables.
# (§4) Compound dilutions of Ramizol and Chlopam were performed in 100% DMSO and the final DMSO concentration in all test wells was 2%. Growth control wells also included 2% DMSO. CLSI protocol was followed for medium, inoculum preparation, and endpoint reading. The commercial antibiotics were dissolved and diluted in the CLSI specified diluent. The final inoculum count for each strain was 5×10^5 CFU/mL.
# Each test substance was dissolved and diluted in 100% DMSO or specified solvent. Each test substance dilution (2 μL) was added to 96 μL broth CAMHB. CAMHB seeded with S. aureus BAA-1717 at 1×10^6 CFU/mL (100 μL) was then added to the plate to generate a final cell count at 5×10^5 CFU/mL.
# (§5) Assay plates were incubated and MIC endpoints were read as described in the MIC assay. FIC (Fraction Inhibitory Concentration) and FIC Index (FICI) values for each test condition and the average of FICI values of all pairwise combinations were calculated to determine if synergy or antagonism existed between the two substances. The FIC index was determined by calculating the sum of the ratios of MICs for both substances. Arithmetically, the FIC Index of a combination of Substance 1 and Substance 2 was defined as following: FICI=Σ[FIC(Substance 1)+FIC(Substance 2)]=[(MIC of Substance 1 in combination/MIC of Substance 1 alone)+(MIC of Substance 2 in combination/MIC of Substance 2 alone)]. Synergy is defined as the FICI (Σ)≤0.5; additivity as FICI (Σ)>0.5 to ≤1; indifference as FICI (Σ)>1 to ≤4; antagonism is defined as the FICI (Σ)>4 (Zinner and Blaser, J. Journal of Antimicrobial Chemotherapy (1986), 17, 1-5; Amin, et al BMC Complementary & Alternative Medicine (2015), 15, 59; Zuo, et al. Molecules (2011), 16, 9819-9826).
# [2] = system: Staphylococcus aureus (ATCC 29213); experiment: Checkerboard combination / MIC assay with S. aureus ATCC 29213; format: cell-based; conditions: S. aureus ATCC 29213; for MIC: Staphylococcus aureus, read-out: MIC of antibiotic alone
# Protocol: as §1, §2, §3, §4
# Cefepime, Daptomycin, Linezolid, Mupirocin, Oxacillin and Vancomycin were also tested alone. Each test substance was dissolved and diluted in 100% DMSO or specified solvent. Each test substance dilution (2 μL) was added to 96 μL broth CAMHB. CAMHB seeded with S. aureus ATCC 29213 at 1×10^6 CFU/mL (100 μL) was then added to the plate to generate a final cell count at 5×10^5 CFU/mL.
# as §5
# [3] = ATCC29213, Table 7, checkerboard series with Ramizol
# [4] = ATCC29213, Table 4, checkerboard series with Chlopam
smiles,measurement,setting,value
"O=C(O)c1ccc(/C=C/c2cc(/C=C/c3ccc(C(=O)O)cc3)cc(/C=C/c3ccc(C(=O)O)cc3)c2)cc1 [Ramizol, 1,3,5-Tris[(1E)-2′-(4″-benzoic acid)vinyl]benzene]",MIC,"[1]; Table 7, checkerboard series with Ramizol, S. aureus ATCC BAA-1717",4 µg/mL
same,MIC,[2]; [3],4 µg/mL
"O=C(O)Cc1ccc(/C=C/c2cc(/C=C/c3ccc(CC(=O)O)cc3)cc(/C=C/c3ccc(CC(=O)O)cc3)c2)cc1 [Chlopam, 2,2′,2″-{[(1E,1′E,1″E)-benzene-1,3,5-triyltris(ethene-2,1-diyl)]tris(benzene-4,1-diyl)}triacetic acid]",MIC,"[1]; Table 4, checkerboard series with Chlopam, S. aureus ATCC BAA-1717",1 µg/mL
same,MIC,[2]; [4],0.5 µg/mL
Cc1onc(-c2ccccc2)c1C(=O)N[C@@H]1C(=O)N2[C@@H]1SC(C)(C)[C@@H]2C(=O)O [Oxacillin],FICI of combination with Chlopam,"[1]; Chlopam 0.001953 μg/mL + labelled antibiotic at MIC of same cell, S. aureus ATCC BAA-1717",1.0
same,FICI of combination with Chlopam,"[1]; Chlopam 0.003906 μg/mL + labelled antibiotic at MIC of same cell, S. aureus ATCC BAA-1717",1.0
same,FICI of combination with Chlopam,"[1]; Chlopam 0.0078125 μg/mL + labelled antibiotic at MIC of same cell, S. aureus ATCC BAA-1717",1.0
same,FICI of combination with Ramizol,"[1]; Ramizol 0.015625 μg/mL + labelled antibiotic at MIC of same cell, S. aureus ATCC BAA-1717",1.0
same,FICI of combination with Ramizol,"[1]; Ramizol 0.03125 μg/mL + labelled antibiotic at MIC of same cell, S. aureus ATCC BAA-1717",1.0
same,FICI of combination with Ramizol,"[1]; Ramizol 0.0625 μg/mL + labelled antibiotic at MIC of same cell, S. aureus ATCC BAA-1717",1.0
same,mean FICI of combination with Chlopam,"[1]; labelled antibiotic + Chlopam, mean of all pairwise combinations, S. aureus ATCC BAA-1717",1.2
same,Effect of the combinations with Ramizol (by mean FICI),"[1]; labelled antibiotic + Ramizol, S. aureus BAA-1717",additive effect
same,mean FICI of combination with Ramizol,"[1]; labelled antibiotic + Ramizol, mean of all pairwise combinations, S. aureus ATCC BAA-1717",0.9
same,FICI of combination with Chlopam,[2]; Chlopam 0.003906 μg/mL + labelled antibiotic at MIC of same cell,1.0
same,MIC of antibiotic in combination with Chlopam,[2]; Chlopam 0.003906 μg/mL,0.5 µg/mL
same,FICI of combination with Chlopam,[2]; Chlopam 0.0078125 μg/mL + labelled antibiotic at MIC of same cell,1.0
same,MIC of antibiotic in combination with Chlopam,[2]; Chlopam 0.0078125 μg/mL,0.5 µg/mL
same,FICI of combination with Chlopam,[2]; Chlopam 0.015625 μg/mL + labelled antibiotic at MIC of same cell,1.0
same,MIC of antibiotic in combination with Chlopam,[2]; Chlopam 0.015625 μg/mL,0.5 µg/mL
same,FICI of combination with Chlopam,[2]; Chlopam 0.125 μg/mL + labelled antibiotic at MIC of same line,0.5 and 0.8
same,MIC of antibiotic in combination with Chlopam,[2]; Chlopam 0.125 μg/mL,0.125 µg/mL and 0.25 µg/mL
same,FICI of combination with Chlopam,[2]; Chlopam 0.25 μg/mL + labelled antibiotic at MIC of same cell,0.8
same,MIC of antibiotic in combination with Chlopam,[2]; Chlopam 0.25 μg/mL,0.125 µg/mL
same,FICI of combination with Chlopam,[2]; Chlopam 0.5 μg/mL + labelled antibiotic at MIC of same cell,1.0
same,MIC of antibiotic in combination with Chlopam,[2]; Chlopam 0.5 μg/mL,0.01563 µg/mL
same,Effect of individual antibiotic combinations of lower concentrations,[2]; Chlopam and Oxacillin: 0.0125 and 0.125 μg/mL,synergistic effect
same,FICI of combination with Ramizol,[2]; Ramizol 0.015625 μg/mL + labelled antibiotic at MIC of same cell,1.0
same,MIC of antibiotic in combination with Ramizol,[2]; Ramizol 0.015625 μg/mL,0.5 µg/mL
same,FICI of combination with Ramizol,[2]; Ramizol 0.03125 μg/mL + labelled antibiotic at MIC of same cell,1.0
same,MIC of antibiotic in combination with Ramizol,[2]; Ramizol 0.03125 μg/mL,0.5 µg/mL
same,FICI of combination with Ramizol,[2]; Ramizol 0.0625 μg/mL + labelled antibiotic at MIC of same cell,1.0
same,MIC of antibiotic in combination with Ramizol,[2]; Ramizol 0.0625 μg/mL,0.5 µg/mL
same,FICI of combination with Ramizol,[2]; Ramizol 0.125 μg/mL + labelled antibiotic at MIC of same cell,1.0
same,MIC of antibiotic in combination with Ramizol,[2]; Ramizol 0.125 μg/mL,0.5 µg/mL
same,FICI of combination with Ramizol,[2]; Ramizol 4 μg/mL + labelled antibiotic at MIC of same cell,1.0
same,MIC of antibiotic in combination with Ramizol,[2]; Ramizol 4 μg/mL,0.016 µg/mL
same,MIC,[2]; [4],0.5 µg/mL
same,MIC,[2]; [3],0.5 µg/mL
same,Effect of the combinations with Chlopam (by mean FICI),[2]; labelled antibiotic + Chlopam,additive effect
same,mean FICI of combination with Chlopam,"[2]; labelled antibiotic + Chlopam, mean of all pairwise combinations",1.0
same,mean FICI of combination with Ramizol,"[2]; labelled antibiotic + Ramizol, mean of all pairwise combinations",1.2
